These results are taken from patent US9393316B2, “Cancer targeting peptides for enhancing anti-cancer drug delivery and therapeutic efficiencies” (priority 2014, dated 2016).

One series concerns colorectal cancer. The series is described as follows: Cytotoxicity of several anticancer drugs. It is filed as cell-based. To be noted: compared with other colon and rectal cancer drugs approved by the FDA.
For series [1], the system named is HCT116 xenografts. The experiment in a line: In vivo peptide competitive inhibition of phage tumor homing. To be noted: co-injected with corresponding phage clone. Also on record: species or system mice. Here is the method:
(§1) Non-obese diabetic-severe combined immunodeficiency (NOD/SCID) mice were injected subcutaneously (s.c.) into the dorsolateral flank with 5×10^6 HCT116 cells. When the xenograft tumor size reached 300±50 mm^3, the mice were injected intravascularly (i.v.) with 2×10^11 pfu of the targeting phage or control phage M13KO7. Seven min after injection, the mice were sacrificed and perfused through the heart with 50 mL of PBS to wash unbound phages. After perfusion, xenograft tumor and mouse organs were taken out, washed three times with cold PBS, and cut into pans, with some of them homogenized. The phages bound to each tissue sample were recovered by log-phase Escherichia coli ER2738 culture and were titered on LB/IPTG/X-Gal agar plates. In peptide competitive inhibition experiments, 2×10^9 pfu of phage was co-injected with 100 μg of corresponding peptide or an unrelated control peptide.
The tumor-homing ability of HCT63, HCT69 and HCT74 phages were further confirmed by peptide competitive inhibition experiment. Mice bearing HCT116 xenografts were co-injected with HCT63, HCT69 and HCT74 phages clones and the homologous cognate synthetic peptide; pHCT63, pHCT69 and pHCT74 peptides (SEQ ID NOs: 1-3, respectively), respectively.

Series [2] concerns HCT116 xenografts. The experiment in a line: Immunohistochemical localization of phages in xenograft tumor and organs. It is filed as in vivo, mice. As to conditions: tumor vs brain, heart, lungs, colon. The procedure: The tissue samples from in vivo phage homing experiment were embedded in frozen blocks. To evaluate the phage distribution in each tissue by immunohistochemistry, the frozen specimens were cut to 8-μm-thick sections and were collected on coated slides. The slides were washed with cold PBS to remove OCT and were fixed with 4% paraformaldehyde for 10 min at RT. To block endogenous peroxidase activity, the slides were soaked with 3% hydrogen peroxide in methanol for 30 min at RT. The nonspecific antibody binding sites were blocked by immersing the section with 1% BSA in PBS for 30 min at RT. The tissue sections were incubated with mouse anti-M13 monoclonal antibody at 1:250 dilution for 1 hr, followed by adding Super Enhancer reagent (Super SENSITIVE™ Polymer HRP Detection System/DAB, BioGenex) for 20 min and Poly-HRP reagent (BioGenex) for 30 min. After washing, the sections were developed with DAB (3,3′-diaminobenzidine) Chromogen (BioGenex) supplemented with Stable DAB buffer. The reaction was stopped by adding PBS. For nuclei staining, the slides were immersed in hematoxylin for 5 min, and were then mounted with mounting solution to terminate the reaction. The images of sections were taken and analyzed using automated acquisition system (TissueGnostics).

The next series has as its system HT29. The experiment in a line: Flow cytometry surface binding of phage clones. The arrangement: species or system human. Here is the method:
(§2) Cells were grown to 70-80% confluence and were harvested with 10 mM EDTA in PBS. Peripheral blood mononuclear cells were prepared by using Ficoll-Paque Plus density gradient separation. After washing and suspending the cells with FACS buffer (PBS containing 1% fetal bovine serum), the cells were incubated for 1 hr at 4° C. with 5×10^9, 1×10^9 cfu individual phage clones or control phage, respectively. After washing twice with FACS buffer, cells were incubated with mouse anti-M13 monoclonal antibody (GE Healthcare) at 1:2000 dilution for 1 hr followed by 30 min with phycoerythrin (PE)-conjugated goat anti-mouse secondary antibody (Jackson ImmunoResearch) at 1:250 dilution at 4° C. The emission fluorescence signals were measured using FACSCantoll (Becton Dickinson) and were analyzed by FlowJo software.
(Flow cytometry measures light scatter and fluorescence of single cells or particles in a stream.)

Series [3] deals with HCT116 cells. The experiment in a line: Flow cytometry surface binding of phage clones. The arrangement: species or system human. Here is the method:
as §2

Another series deals with COLO205. The series is described as follows: Flow cytometry surface binding of phage clones. The arrangement: species or system human. The procedure:
as §2

The next series deals with SW620. The experiment in a line: Flow cytometry surface binding of phage clones. Also on record: species or system human. Here is the method: as §2
The next series relates to LS174T. The experiment in a line: Flow cytometry surface binding of phage clones. Also on record: species or system human. Here is the method:
as §2

The next series relates to B16-F10. The experiment in a line: Cellular ELISA of phage clones. The class given is binding, mouse. Here is the method: (§3) The selected phages were further identified by ELISA screening. 1×10^4 cells were seeded into each well of 96-well ELISA plates (Falcon, Calif., USA) overnight and were fixed with 2% paraformaldehyde or methanol/acetone (1:1) for 10 min at RT. The plates were washed twice with PBS and were blocked with 1% BSA in PBS (w/v) for 30 min at RT. Then individual phage clones were added and incubated for 1 hr at RT. Following washing three times with PBS, the plates were incubated with horseradish peroxidase (HRP)-conjugated mouse anti-M13 phage antibody (GE Healthcare) at 1:2000 dilution for 1 hr at RT. The plates were washed three times with PBS again, and were subsequently incubated with the peroxidase substrate o-phenylenediamine dihydrochloride (OPD; Sigma) plus H2O2. The reaction was terminated by 3 N HCl, and the absorbance was measured using microplate reader (Model 680, BioRad) at 490 nm. To evaluate the binding activities of the three selected phage clones to various human cancer cell lines, cellular ELISA was performed to detect sixteen types of human cancer cell lines, including A498, HTB-10, B16-F10, SKOV3, PC-3, U2OS, 1112SK, […], SAS, H460, MIA Paca-2, HCT116, HUVAC, CL1-5, Mahlavu, and MDA-MB-231.
In general terms: In an ELISA, binding on a coated surface is turned into a signal by an enzyme label.

In series [4] the test system is peripheral blood mononuclear cells (PBMC). The series is described as follows: Flow cytometry binding of phage clones to normal cells. As to conditions: human PBMC. The procedure: as §2
The subject of a further series is H460. The experiment in a line: Cellular ELISA of phage clones. It is filed as binding, human. The procedure: as §3
In a further series the test system is MDA-MB-231. The experiment in a line: Cellular ELISA of phage clones. The class given is binding, human. The procedure: as §3
Another series relates to U2OS. The series is described as follows: Cellular ELISA of phage clones. It is filed as binding, human. Here is the method: as §3
The subject of a further series is H184. The experiment in a line: Cellular ELISA of phage clones. It is filed as binding, human. Here is the method: as §3
The subject of another series is HUVAC. The experiment in a line: Cellular ELISA of phage clones. The class given is binding, human. Here is the method:
as §3

Another series deals with PC-3. The series is described as follows: Cellular ELISA of phage clones. The class given is binding, human. The procedure: as §3
In the next series the test system is A498. The experiment in a line: Cellular ELISA of phage clones. The class given is binding, human. Here is the method:
as §3

The next series deals with 1112SK. The experiment in a line: Cellular ELISA of phage clones. The class given is binding, human. Here is the method: as §3
A further series relates to MIA Paca-2. The experiment in a line: Cellular ELISA of phage clones. The class given is binding, human. Here is the method: as §3
For a further series, the system named is CL1-5. The experiment in a line: Cellular ELISA of phage clones. The class given is binding, human. The procedure:
as §3

For another series, the system named is SAS. The experiment in a line: Cellular ELISA of phage clones. The class given is binding, human. Here is the method: as §3
The test system of a further series is SKOV3. The experiment in a line: Cellular ELISA of phage clones. The class given is binding, human. The procedure: as §3
Another series deals with Mahlavu. The series is described as follows: Cellular ELISA of phage clones. The class given is binding, human. Here is the method: as §3
Series [5] concerns HCT116 xenografts. The experiment in a line: In vivo tumor homing, phage titer in tumor and organs. The arrangement: species or system mice. As to conditions: 2×10^11 pfu i.v., PBS perfusion; vs brain, lungs, heart. Here is the method: as §1
To investigate the targeting ability of the selected phage clones in vivo, mice bearing HCT116 xenografts (300 mm^3) were injected with 2×10^11 pfu of either the selected phages or control phage through the tail vein. Phages were circulated and then were perfused with PBS buffer to wash out non-specific binders in circulation. After perfusion, we recovered and determined the […] of phage in tumor masses and normal organs.

The subject of series [6] is HCT116 cells. The experiment in a line: ELISA screening of phage clones on HCT116 cells (cellular ELISA). The class given is binding, human. To be noted: HCT116, cell line panel. The procedure: The selected phages were further identified by ELISA screening. 1×10^4 cells were seeded into each well of 96-well ELISA plates (Falcon, Calif., USA) overnight and were fixed with 2% paraformaldehyde or methanol/acetone (1:1) for 10 min at RT. The plates were washed twice with PBS and were blocked with 1% BSA in PBS (w/v) for 30 min at RT. Then individual phage clones were added and incubated for 1 hr at RT. Following washing three times with PBS, the plates were incubated with horseradish peroxidase (HRP)-conjugated mouse anti-M13 phage antibody (GE Healthcare) at 1:2000 dilution for 1 hr at RT. The plates were washed three times with PBS again, and were subsequently incubated with the peroxidase substrate o-phenylenediamine dihydrochloride (OPD; Sigma) plus H2O2. The reaction was terminated by 3 N HCl, and the absorbance was measured using microplate reader (Model 680, BioRad) at 490 nm.

Another series deals with HTB-10. The series is described as follows: Cellular ELISA of phage clones. It is filed as binding, human. The procedure:
as §3

Turning to `CCC1=C[C@@H]2CN(C1)Cc1c([nH]c3ccccc13)[C@@](C(=O)OC)(c1cc3c(cc1OC)N(C)[C@H]1[C@@](O)(C(=O)OC)[C@H](OC(C)=O)[C@]4(CC)C=CCN5CC[C@]31[C@@H]54)C2` [Vinorelbine, vinorelbine], the cytotoxicity profile result in the series with colorectal cancer was “significantly better cytotoxicity profiles”.

In the case of RLNLDIIAVTSV (HCT-63) [pHCT63], in the series with HCT116 xenografts [1], the “inhibition of phage recovery from tumor tissue by cognate peptide” value (“inhibition of phage recovery” below) is “markedly inhibited the recovery of phage particles from tumor tissue”.

Take RLNLDIIAVTSV [HCT63]: the entries for the “phage localization by immunostaining of tissue sections” value with HCT116 xenografts [2] and with HCT116 xenografts [2] (listed as HCT-63) were “selectively localized in tumor tissues” and “strong accumulated in the tumor”, respectively. For the same compound, the “binding activity by FACS” value in the series on HT29 is listed as “reacted strongly”; in the series with COLO205, “moderately”; with SW620, “reacted strongly”; with LS174T, “reacted strongly”. The “cell surface-binding activity by flow cytometry” value with HCT116 cells [3] was “reacted strongly”. The “binding by cellular ELISA” value in the series with B16-F10, in the series on H460, with MDA-MB-231, with U2OS, with H184 and with HUVAC was “high binding specificity” throughout. Further, the “binding by cellular ELISA” value in the series on PC-3, in the series with A498, with 1112SK, in the series on MIA Paca-2, in the series with CL1-5 and in the series with SAS was “high binding specificity” in each case. In addition, the “binding by cellular ELISA” value in the series with SKOV3, with Mahlavu and with HCT116 cells [6] was “high binding specificity” in each case. Besides, the “binding activity to PBMC (normal cells) by FACS” value in series [4] is listed as “not to normal cells”. Further, the “phage accumulation in tumor mass vs normal organs (phage titer)” value in the series on HCT116 xenografts [5] is listed as “significantly accumulated in the tumor mass”.

As for SSMDIVLRAPLM (HCT-74) [pHCT74], in the series on HCT116 xenografts [1], the “inhibition of phage recovery” value is reported as “markedly inhibited the recovery of phage particles from tumor tissue”.

For TSVSIVSTVLTP (HCT-69) [pHCT69], the “inhibition of phage recovery” value in the series with HCT116 xenografts [1] is recorded as “markedly inhibited the recovery of phage particles from tumor tissue”.

As for TSVSIVSTVLTP [HCT69], the results for the “phage localization by immunostaining of tissue sections” value in the series with HCT116 xenografts [2] and in the series with HCT116 xenografts [2] (listed as HCT-69) were “selectively localized in tumor tissues” and “strong accumulated in the tumor”, respectively. Further, the “binding activity by FACS” value with HT29 is given as “high binding affinity”; in the series on COLO205, “weak affinity”; with SW620, “high binding affinity”; with LS174T, “moderate affinity”. In addition, the “cell surface-binding activity by flow cytometry” value in the series on HCT116 cells [3] was “high binding affinity”. In addition, the “binding by cellular ELISA” value with B16-F10, in the series with H460, in the series with MDA-MB-231, in the series with U2OS, with H184 and with HUVAC was “highly specific binding” in each case. For the same compound, the “binding by cellular ELISA” value is recorded as “highly specific binding” in the series with PC-3; “highly specific binding” in the series on A498; “highly specific binding” with 1112SK; “highly specific binding” in the series with MIA Paca-2; “moderate binding” in the series with HTB-10; “moderate binding” in the series with CL1-5. For the same compound, the “binding by cellular ELISA” value in the series with SAS, with SKOV3, in the series on Mahlavu and in the series on HCT116 cells [6] was “highly specific binding” each time. For the same compound, the “binding activity to PBMC (normal cells) by FACS” value in [4] is reported as “not to normal cells”. In the series with HCT116 xenografts [5], the “phage accumulation in tumor mass vs normal organs (phage titer)” value is given as “significantly accumulated in the tumor mass”.
